Counter-ions that a name gives are not always drawn.

Data set [1] can be described thus: toxicity comparison of prior art compound with the compounds of the invention. Conditions: prior art compound prepared and tested by applicants. From the text: The closest prior art compound known to applicants is 1,5-bis[N-(4-diethylamino- 1-methylbutyl)sulfamoyl]-anthraquinone. The preparation of this compound is disclosed in I. Kh. Fel'dman, Z. Ovsyanaya, and E. Kozlov, Tr. Leningr. Khim.-Farmatsevt. Inst. 1960 (11), 48-53; CA 59: 11312.

In data set [2] the test system is virus (Vaccinia IHD, Encephalomyocarditis, Influenza Ao (PR8), Influenza A/Equine (Prague), Mengo, Semliki Forest). It counts as in vivo, mice. The following applies: prior art compound prepared and tested by applicants.
A short description of another data set: hygroscopicity. The class given is physicochemical. The following applies: dihydrochloride salt. As for the experimental part:
Following the procedure of Example 1 and using anthraquinone-2,7-disulfonylchloride, the title compound was obtained. Since the dihydrochloride was hygroscopic, it was converted to the free base by stirring it in a 10% sodium carbonate solution and recrystallized from a mixture of ether and hexane, m.p. 93°-95°.

For the next data set, the system named is Vaccinia IHD. It counts as in vivo, mice. Conditions: Vaccinia IHD 24 ID50, subcutaneous in tail; lesion scored on 7th day; subcutaneous treatment 28, 22, 4 hrs. pre- and 2, 20, 26 hrs. post-challenge; 2 to 50 mg. per kg.

As to `CCN(CC)CCCC(C)NS(=O)(=O)c1cccc2c1C(=O)c1cccc(S(=O)(=O)NC(C)CCCN(CC)CC)c1C2=O` (stereo not shown) [1,5-bis[N-(4-diethylamino-1-methylbutyl)sulfamoyl]-anthraquinone], the “toxicity relative to the compounds of this invention” value in data set [1] was “very much more toxic than the compounds of this invention”. Also, in data set [2], the “activity in antiviral tests used with the compounds of this invention” value is “inactive”.
As to `CCCCN(CCCC)CCCNS(=O)(=O)c1ccc2c(c1)C(=O)c1cc(S(=O)(=O)NCCCN(CCCC)CCCC)ccc1C2=O` [Example 3 dihydrochloride], the hygroscopicity result in the data set “hygroscopicity” is recorded as “hygroscopic”.
In the case of `CCCCN(CCCC)CCCNS(=O)(=O)c1ccc2c(c1)C(=O)c1cc(S(=O)(=O)NCCCN(CCCC)CCCC)ccc1C2=O` [Example 6, 2,7-Bis-[N-(3-dibutylaminopropyl)sulfamoyl]-anthraquinone], the “antiviral activity: lesions of treated animals compared to controls” value with Vaccinia IHD is recorded as “fewer lesions”.

The record behind these values is patent US3983248A (priority 1971, dated 1976).
